Laboratory results reported in patent publication US20040191241A1, “Antigen with haptenic mannitol epitopes and a method of preparing antibodies specific to D-mannitol” (COUNCIL OF SCIENTIFIC AND INDUSTRIAL RESEARCH, priority 2003, published 2004).
Read-outs that look alike come from different tables or passages of the source.

Key:
[1] = test system: hapten affinity-purified D-mannitol-specific antibody; experiment: ELISA inhibition: specificity and cross-reactivity of the hapten affinity-purified antibody, D-mannitol-KLH coated wells; assay type: binding, rabbit; settings: for Inhibition in ELISA (in words): comparison among inhibitors; for IC50: read-out: IC50 (concentration required for 50% inhibition in ELISA)
Description: FIG. 5 depicts specificity of the purified D-mannitol-specific antibody determined by ELISA inhibition. D-Mannitol-KLH conjugate (10 ng/well) was used for coating. The purified antibody (at 1:100 dilution) was preincubated with various inhibitors at different concentrations at 37° C. for 1 h before adding to the coated wells.
FIG. 6 depicts stereo specificity of the purified D-mannitol-specific antibody determined by ELISA inhibition. As L-mannitol is not available commercially, L-mannitol-BSA conjugate (prepared using L-mannose) was used as inhibitor and the inhibition was compared with that of D-mannitol-BSA conjugate.
To check for the formation of hapten-specific antibodies the antiserum was analyzed by non-competitive ELISA using the coated antigen format. The titer of the antiserum was determined by measuring the binding of serial dilutions of antiserum to coated mannitol-KLH conjugate. Flat bottom polystyrene microtiter wells were coated with mannitol-KLH conjugate at 1000, 100, 50, 10, and 1 ng per well in carbonate-bicarbonate buffer, pH 9.6 by incubating at 4° C. overnight. The wells were washed thrice between steps using PBS containing 0.05% Tween 20 (PBS-T). Blocking was done using 0.5% gelatin in PBS-T (blocking buffer) at 37° C. for 30 min. Antiserum diluted in blocking buffer (1:10, 1:100, 1:1000, 1:10000, 1:25000, 1:50000, 1:75000; 1:100000, 1:200000, 1:400000) was added (100 μL/well) and incubated at 37° C. for 2 h. Mouse anti-rabbit IgG-alkaline phoshatase secondary antibody (1:5000 dilution in blocking buffer, 100 μL/well) was added and incubated at 37° C. for 1 h. Color development was done using p-nitrophenyl phosphate (1 mg/mL, 100 μL/well) in diethanolamine buffer, pH 9.8, at 37° C. for 30 min. The reaction was stopped by adding 3 M NaOH (40 μL/well) and the absorbance at 405 nm was read in an ELISA reader.
The hapten affinity-purified D-mannitol-specific antibody was used for ELISA experiments to obtain the binding curves using D-mannitol-KLH conjugate for coating, and to study the specificity and cross-reactivity by ELISA inhibition experiments. Here, purified antibody was preincubated with various concentrations of inhibitors at 37° C. for 1 h before adding to coated microtiter wells. Other steps were as described under ‘Titration of antiserum’. Percent cross-reactivity for various inhibitors was calculated using the formula: […]

[2] = test system: mannitol-specific mast cell-bound human IgE; experiment: Skin prick test (SPT) in an allergic subject sensitized to mannitol; assay type: in vivo; settings: for Wheal diameter / Flare diameter: SPT, free compounds at 0.1%; for Wheal diameter: first figure of wheal/flare; for Flare diameter: second figure of wheal/flare
From the text: A D-mannitol-BSA and D-mannitol-KLH conjugate was used for skin prick test (SPT) in a mannitol-allergic subject, after obtaining Institutional Ethics Committee (IEC) clearance, and informed consent. D-Mannitol and its conjugates with BSA and KLH produced positive test whereas, D-mannose and control BSA and control KLH gave negative test (Table 2). L-Mannitol BSA conjugate was negative in SPT. All these samples were negative in SPT in 10 normal subjects.

[3] = (IC50 for D-mannitol ÷ IC50 for test compound) × 100
[4] = free sugars/sugar alcohols as competitor, D-mannitol-KLH 10 ng/well coating, antibody 1:100, preincubated 37° C. 1 h

In the case of OC[C@@H](O)[C@@H](O)[C@H](O)[C@@H](O)CO [D-Glucitol], the Percent cross-reactivity [1, 3] is reported as 8.8%, the Percent cross-reactivity ([1]; (IC50 for D-mannitol ÷ IC50 for test compound) × 100, listed as D-glucitol (sorbitol)) is reported as ~9% and the “Inhibition in ELISA (in words)” value [1] is reported as “higher compared to that by meso-erythritol and D-mannose”. The IC50 [1, 4] was 60 mM.

For OC[C@@H](O)[C@@H](O)[C@H](O)[C@H](O)CO [D-Mannitol], the Percent cross-reactivity [1, 3] was 100.0%, the “Inhibition in ELISA (in words)” value [1] was “maximum inhibition” and the IC50 [1, 4] was 5.25 mM. The “SPT result (positive/negative)” value [2] was “positive”, the Wheal diameter [2] was 5 mm and the Flare diameter [2] was 25 mm.

With O=C[C@@H](O)[C@@H](O)[C@H](O)[C@H](O)CO [D-Mannose] the Percent cross-reactivity [1, 3] was 4.9%, the “SPT result (positive/negative)” value [2] was “negative” and the Wheal diameter [2] was 1 mm. It also gave a Flare diameter [2] of 0 mm.

With NCCc1c[nH]cn1 [Histamine base] the Wheal diameter [2] was 6 mm and the Flare diameter [2] was 30 mm.

Work on NCCCC[C@H](N)C(=O)O [L-lysine] yielded a Percent cross-reactivity [1, 3] of 2%.

With OCC(O)C(O)CO (stereo not drawn) [meso-Erythritol] the Percent cross-reactivity [1, 3] was 4.9%.

For “Control BSA: BSA incubated under the conjugation conditions, excluding D-mannose”, the “SPT result (positive/negative)” value [2] was “negative”, the Wheal diameter [2] was 1 mm and the Flare diameter [2] was 0 mm.

With “N-(1-deoxy-D-mannitol-1-yl)n-carrier [D-Mannitol-BSA conjugate]” the IC50 ([1]; BSA conjugates as inhibitor (stereospecificity, FIG. 6)) was 0.00064 mM, the Percent cross-reactivity ([1]; conjugate inhibitors, relative to D-mannitol-BSA conjugate) was 100.00% and the “SPT result (positive/negative)” value [2] was “positive”. For the same compound, the Wheal diameter [2] was 4 mm and the Flare diameter [2] was 30 mm.

With “N-(1-deoxy-D-mannitol-1-yl)n-carrier [D-Mannitol-KLH conjugate]” the “SPT result (positive/negative)” value [2] was “positive”, the Wheal diameter [2] was 4 mm and the Flare diameter [2] was 25 mm.
